Source: ChEMBL document CHEMBL3044967, “Synthesis, biological evaluation, and molecular modeling studies of new 1,3,4-oxadiazole- and 1,3,4-thiadiazole-substituted 4-oxo-4H-pyrido[1,2-a]pyrimidines as anti-HIV-1 agents” (Med Chem Res, 2013)

Legend:
[1] = system: Human immunodeficiency virus 1; assay: Antiviral activity against Human immunodeficiency virus 1 NL4-3 infected human HeLa cells assessed as decrease in P24 expression at 100 uM after 72 hr by single cycle replication assay; assay type: functional; conditions: Human immunodeficiency virus 1, NL4-3, HeLa
[2] = Cytotoxicity against Homo sapiens (human) HeLa cells infected with HIV-1 NL4-3 assessed as cell viability at 100 uM by XTT assay; assay type: cell-based; conditions: read-out: Activity

Compound | inhibition at 100 µM [1] | viability at 100 µM [2]
O=c1c(-c2nnc(-c3ccc(Cl)cc3)o2)cnc2ccccn12 | 26% | 94%
Nc1nnc(-c2cnc3ccccn3c2=O)o1 |  | 96%
O=c1c(-c2nnc(S)o2)cnc2ccccn12 | 11% | 100%
O=c1c(-c2nnc(-c3ccccc3)o2)cnc2ccccn12 |  | 98%
O=c1c(-c2nnc(-c3ccc(F)cc3)o2)cnc2ccccn12 | 18% | 100%
COc1ccc(-c2nnc(-c3cnc4ccccn4c3=O)o2)cc1 |  | 100%
Cc1ccc(-c2nnc(-c3cnc4ccccn4c3=O)o2)cc1 | 29% | 94%
O=c1c(-c2nnc(-c3ccccc3)s2)cnc2ccccn12 | 33% | 100%
O=c1c(-c2nnc(-c3ccc(F)cc3)s2)cnc2ccccn12 | 48% | 92%
O=c1c(-c2nnc(-c3ccc(Cl)cc3)s2)cnc2ccccn12 | 39% | 95%
COc1ccc(-c2nnc(-c3cnc4ccccn4c3=O)s2)cc1 | 28% | 97%
Cc1ccc(-c2nnc(-c3cnc4ccccn4c3=O)s2)cc1 | 51% | 93%
Cc1cn([C@H]2C[C@H](N=[N+]=[N-])[C@@H](CO)O2)c(=O)[nH]c1=O [ZIDOVUDINE] | 100% | 100%
